Measured values: patent US6362216B1, “Compounds which inhibit tryptase activity” (Array Biopharma Inc., priority 1998, dated 2002)

Tests used:
Type in all cases: biochemical
[1] = molecular target: T1, Human lung tryptase; assay: Human lung tryptase inhibition, chromogenic GPR-pNA substrate
T1 construct: Human lung tryptase purchased from Cortex Biochem (San Leandro, Calif.) was purified further on a Superdex 200 gel-filtration column
Description: (§1) Protease inhibition was assayed according to published procedures with minor modifications using various proteases and specific chromogenic peptide p-nitroanilide substrates. Assays were performed in Costar ultra-low cluster 96-well microtiter plate (Costar Corning Corp., Cambridge Mass.). Each protease was incubated with various concentrations of the test compound for 15 min. at 37° C. or as otherwise indicated, in specific assay buffer, and the residual activity was then measured by addition of the substrate. p-Nitroaniline produced by the proteolysis was determined by measuring the change in absorbance at 405 nm on a SpectraMAX 340 plate reader (Molecular devices, Sunnyvale, Calif.).
(§2) 1. The inhibition constant, Ki is calculated from individual data points using the equation for a tight-binding inhibitor (See Beith, “Proteinase Inhibitors-Proceedings of 2nd Int. Res. Conference”, Fritz, et al. eds., New York, p.4463-4469 (1974)):
vi/vo=[((Ki′+[I]+[E]o)^2−4[I]o[E]o)^½(Ki′+[I]o−[E]o)]/2[E]o
where Ki′ is apparent inhibition constant; vi and vo are the inhibited and uninhibited rates, respectively; [I]o and [E]o are the total concentrations of inhibitor and enzyme, respectively.
[note: [E]o is determined by active site titration of enzyme]
(§3) The Ki values are obtained by correcting Ki ′ values for the effect of substrate concentration according to: [formula]
(§4) 2. Other inhibition data (Ki>>[E]o), the Ki is calculated from using the equations for a competitive inhibitor: [formula]
IC50 is determined by fitting the individual inhibition data point to Sigmoid or four-parameter curve-fit equations.
Human lung tryptase purchased from Cortex Biochem (San Leandro, Calif.) was purified further on a Superdex 200 gel-filtration column. The active-site concentration of the enzyme was determined by spectrophotometric titration with 4-nitrophenyl 4′-guanidinobenzoate according to Schwartz, et al., J. Immunol., 114, 2304-2311 (1990). Tryptase activity was measured according to the procedures of Schwartz, et al., J. Biol. Chem., 261, 7372-7379 (1986) (See also, Schwartz, L. B., Methods In Enzymology, 244, 88 (1994)) with minor modifications, using Tosyl-Gly-Pro-Arg-p-nitroanilide (“GPR-pNA”, Sigma Chemical Co., St. Louis, Mo., T-1637) as a chromogenic substrate. The reaction was performed in 50 mM Tris-HCl, pH 8.0, containing 150 mM NaCl and 0.02% Triton X-100 at 37° C. in Costar ultra-low cluster 96-well microtiter plates (Costar Corning Corp., Cambridge, Mass.). The amount of pNA produced by tryptase was determined by measuring the change in absorbance at 405 nm on a SpectraMAX 340 plate reader (Molecular devices, Sunnyvale, Calif.). The Km for the substrate was determined by Lineweaver-Burk analysis from initial velocities of substrate hydrolysis. The inhibition assay was carried out in a total volume of 200 μL. Tryptase (30 μL-final concentration 1 nM) was incubated with various concentrations of sample compound (50 μL) to be tested in the above assay buffer for 5 min. The reaction was started by the addition of substrate GPR-pNA (40 μL-final concentration 320 μM), and the residual activity was measured after 15 min. of incubation. The inhibition constant, Ki, was determined by fitting the inhibition data to a two-site competitive binding equation using data analysis program GraphPad PRISM (GraphPad Software, Inc., San Diego, Calif.).
(§5) The inhibition constant (Ki) of the test compounds against each proteolytic enzyme was determined according to Zitnik et al., Biochem. Biophys. Res. Commun. 232, 687-697 (1997)).

[2] = molecular target: T2, Bovine pancreatic Trypsin (TPCK-treated) (Bos taurus, UniProt P00760); assay: Bovine pancreatic trypsin inhibition, N-α-Benzoyl-L-Arg-pNA substrate
T2 construct: from tissue; host or cells: bovine pancreas
T2 sequence (P00760 24-246): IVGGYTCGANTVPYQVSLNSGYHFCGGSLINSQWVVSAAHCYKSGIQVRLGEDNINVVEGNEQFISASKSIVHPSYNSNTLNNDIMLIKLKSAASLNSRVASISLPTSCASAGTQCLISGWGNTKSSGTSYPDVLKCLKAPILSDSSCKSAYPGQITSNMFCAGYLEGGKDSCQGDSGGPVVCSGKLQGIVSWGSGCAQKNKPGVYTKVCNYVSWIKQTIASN
Description: as §1, §2, §3, §4
C. Bovine Pancreatic Trypsin
Bovine pancreatic Trypsin (TPCK-treated) activity was determined by using N-α-Benzoyl-L-Arg-pNA in 50 mM Tris-HCl, pH 8.2, 20 mM CaCl2 (See Somorin, et al., J. Biochem. 85, 157-162 (1979)).
as §5

[3] = molecular target: T3, Human plasma thrombin (Homo sapiens, UniProt P00734); assay: Human plasma thrombin inhibition, H-D-Phe-Pip-Arg-pNA substrate
T3 construct: from tissue; host or cells: human plasma
Description: as §1, §2, §3, §4
Human plasma thrombin activity was determined by using H-D-Phe-Pip-Arg-pNA in 50 mM Tris-HCl, pH 8.3, 100 mM NaCl, 1% BSA (See Lottenberg, et al., Meth. Enzymol. 80, 341-361 (1981)).
as §5

[4] = tryptase 1 nM, GPR-pNA 320 μM, 50 mM Tris-HCl pH 8.0, 37° C.
[5] = 50 mM Tris-HCl, pH 8.2, 20 mM CaCl2
[6] = 50 mM Tris-HCl, pH 8.3, 100 mM NaCl, 1% BSA

Ki [1, 4] | Ki [2, 5] | Ki [3, 6] | Compound | further results
0.055 µM | 0.43 µM | > 100 µM | N=C(N)c1ccc2cc(C(=O)Nc3cccc(N)c3)ccc2c1 | –
0.08 µM | 1.3 µM | > 100 µM | N=C(N)c1ccc2cc(C(=O)NCc3cccc(N)c3)ccc2c1 | –
1.2 µM | 2.1 µM | > 100 µM | N=C(N)c1ccc2cc(CC(=O)Nc3cccc(N)c3)ccc2c1 | –
0.21 µM | 0.59 µM | > 100 µM | N=C(N)c1ccc2cc(C(=O)NCc3ccc(N)cc3)ccc2c1 | –
0.16 µM | 0.95 µM | > 100 µM | N=C(N)c1ccc2cc(C(=O)NCCc3ccc(N)cc3)ccc2c1 | –
0.1 µM | – | – | N#Cc1ccc2[nH]c(Cc3nc4cc(C(=N)N)ccc4[nH]3)nc2c1 | –
5.2 µM | – | – | N=C(N)c1ccc2[nH]c(CC(=O)Nc3ccc4ccccc4c3)nc2c1 [2-Napthyl] | –
1.2 µM | – | – | N=C(N)c1ccc2[nH]c(CC(=O)Nc3ccccn3)nc2c1 [2-Pyridyl] | –
1.7 µM | – | – | N=C(N)c1ccc2[nH]c(CC(=O)NC3CCN(Cc4ccccc4)CC3)nc2c1 [4-Piperidinyl(N-benzyl)] | –
0.81 µM | 21.8 µM | > 100 µM | N=C(N)c1ccc2[nH]c(CC(=O)Nc3ccc4[nH]ccc4c3)nc2c1 [5-Indole] | –
0.34 µM | 4.6 µM | > 100 µM | N=C(N)c1ccc2[nH]c(CC(=O)Nc3ccc4ncccc4c3)nc2c1 [6-Quinoline] | –
0.52 µM | 2.2 µM | > 100 µM | N=C(N)c1cccc(NC(=O)Cc2nc3cc(C(=N)N)ccc3[nH]2)c1 [(3-Amidino)Ph] | –
0.29 µM | 14.2 µM | > 100 µM | N=C(N)c1ccc2[nH]c(CC(=O)Nc3cccc(N)c3)nc2c1 [(3-Amino)Ph] | –
7.7 µM | – | – | CS(=O)(=O)Nc1cccc(NC(=O)Cc2nc3cc(C(=N)N)ccc3[nH]2)c1 [(3-N(H)SO2CH3)Ph] | –
0.57 µM | 8.7 µM | > 100 µM | N=C(N)c1ccc2[nH]c(CC(=O)Nc3cccc(O)c3)nc2c1 [(3-OH)Ph] | –
0.97 µM | 1.7 µM | > 100 µM | N=C(N)c1ccc(NC(=O)Cc2nc3cc(C(=N)N)ccc3[nH]2)cc1 [(4-Amidino)Ph] | –

Ki [1, 4] | Ki [2, 5] | Ki [3, 6] | Compound | further results
6.4 µM | – | – | CC(=O)Nc1ccc(NC(=O)Cc2nc3cc(C(=N)N)ccc3[nH]2)cc1 [(4-N(H)COCH3)Ph] | –
3.9 µM | – | – | CS(=O)(=O)Nc1ccc(NC(=O)Cc2nc3cc(C(=N)N)ccc3[nH]2)cc1 [(4-N(H)SO2CH3)Ph] | –
2.2 µM | – | – | N=C(N)c1ccc2[nH]c(CC(=O)Nc3ccc(S(N)(=O)=O)cc3)nc2c1 [(4-SO2NH2)Ph] | –
4.7 µM | – | – | N=C(N)c1ccc2[nH]c(CC(=O)NCc3ccncc3)nc2c1 [CH2(4-Pyridyl)] | –
1.3 µM | – | – | N=C(N)c1ccc2[nH]c(CC(=O)NCCc3ccncc3)nc2c1 [CH2CH2(4-Pyridyl)] | –
9.6 µM | – | – | CCCNC(=O)Cc1nc2cc(C(=N)N)ccc2[nH]1 [CH2CH2CH3] | –
7.4 µM | – | – | CCNC(=O)Cc1nc2cc(C(=N)N)ccc2[nH]1 [CH2CH3] | –
0.49 µM | 7.5 µM | > 100 µM | N=C(N)c1ccc2[nH]c(CC(=O)NCc3cccc(N)c3)nc2c1 [CH2Ph(3-Amino)] | –
2.5 µM | – | – | N=C(N)c1ccc2[nH]c(CC(=O)NCc3ccc(CN)cc3)nc2c1 [CH2Ph(4-CH2NH2)] | –
42.8 µM | – | – | CNC(=O)Cc1nc2cc(C(=N)N)ccc2[nH]1 [CH3] | –
36.9 µM | – | – | N=C(N)c1ccc2[nH]c(CC(=O)NC3CCCCC3)nc2c1 [Cyclohexyl] | –
31.4 µM | – | – | N=C(N)c1ccc2[nH]c(CC(N)=O)nc2c1 [H] | –
9.5 µM | – | – | N=C(N)c1ccc2[nH]c(CC(=O)Nc3ccccc3)nc2c1 [X = H n = 0] | –
21.8 µM | – | – | N=C(N)c1ccc2[nH]c(CC(=O)NCc3ccccc3)nc2c1 [X = H n = 1] | –
5.5 µM | – | – | N=C(N)c1ccc2[nH]c(CC(=O)NCCc3ccccc3)nc2c1 [X = H n = 2] | –
– | – | – | Cc1cc2cc(CNC(=O)Cc3ccc4cc(C(=N)N)ccc4c3)ccc2[nH]1 [drawing 17 Naphthalene 2,6-substitution n=1] | Ki ([1]; the 5th table, unit inferred): 0.01 µM; Ki ([2]; the 5th table, unit inferred): 0.34 µM; Ki ([3]; the 5th table, unit inferred): > 100 µM

Compound | Ki [1, 4] | Ki [2, 5] | Ki [3, 6] | further results
N=C(N)c1ccc2sc(C(=O)Nc3cccc(N)c3)cc2c1 | 0.52 µM | 14 µM | > 100 µM | –
N=C(N)c1ccc2sc(C(=O)NCc3cccc(N)c3)cc2c1 | 0.22 µM | 9.1 µM | > 100 µM | –
N=C(N)c1ccc2sc(CC(=O)NCc3cccc(N)c3)cc2c1 | 0.09 µM | 6.4 µM | > 100 µM | –
N=C(N)c1ccc2sc(C(=O)NCCc3ccc(N)cc3)cc2c1 | 0.17 µM | 8.3 µM | > 100 µM | –
N=C(N)c1ccc2sc(C(=O)NCc3ccc(N)cc3)cc2c1 | 0.44 µM | 8.8 µM | > 100 µM | –
N=C(N)c1ccc2[nH]c(CC(=O)Nc3cccc(N)c3)cc2c1 [drawing 14 Indole 5-carboxamidine n=1 m=0] | 0.39 µM | 4 µM | > 100 µM | –
N=C(N)c1ccc2[nH]c(CC(=O)Nc3ccc(N)cc3)cc2c1 [drawing 15 Indole 5-carboxamidine n=1 m=0] | 0.2 µM | 3.8 µM | > 100 µM | –
N=C(N)c1ccc2[nH]c(CC(=O)NCc3ccc(N)cc3)cc2c1 [drawing 15 Indole 5-carboxamidine n=1 m=1] | 0.44 µM | 3.4 µM | 65 µM | –
